Assay results: patent US20150191469A1, “COMPOUNDS AND METHODS FOR TREATING HIV” (priority 2012, published 2015)

The compounds below were run on HIV (assay: MT4 assay: antiviral HIV activity (cell protection, cell titer glo readout at 96 hours)). Details: Human immunodeficiency virus 1, MT4, 96 h, MT4 cells, cell titer glo readout at 96 hours, 10 point dose response; read-out: HIV MT4 Assay IC50.
Format: cell-based
Method in brief: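 MT-4 cells infected with HIV, with inhibition readout by CellTiter-Glo luminescence at 96 h relative to no-compound control. Cytotoxicity measured in parallel under the same conditions. IC50 from a 10-point, 3-4-fold dilution series spanning >1000-fold, fitted with a four-parameter logistic equation.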
With `Cc1nc2c(cc(C(=O)N3CCC4(CC3)C(=O)NC(=O)N4C)n2C)c(-c2cc(F)c3c(c2C)CCCO3)c1[C@H](OC(C)(C)C)C(=O)O` [Example 221] the IC50 was 17600 nM.
Compound `Cc1nc2c(cc(C(=O)N3CCc4ccccc4C3)n2C)c(-c2cc(F)c3c(c2C)CCCO3)c1[C@H](OC(C)(C)C)C(=O)O` [Example 174] has an IC50 of 3.6 nM.
In the case of `Cc1nc2c(cc(C(=O)N3CC(c4ccccc4)C3)n2C)c(-c2cc(F)c3c(c2C)CCCO3)c1[C@H](OC(C)(C)C)C(=O)O` [Example 194], the IC50 is reported as 1.5 nM.
For `Cc1nc2c(cc(-c3ccnc(N4CCCN5CCCC5C4)c3)n2C)c(-c2cc(F)c3c(c2C)CCCO3)c1[C@H](OC(C)(C)C)C(=O)O` (some centres unmarked) [Example 124], the IC50 was 32.5 nM.
Work on `Cc1nc2c(cc(-c3nnc(N4CCOC[C@H]4C)o3)n2C)c(-c2cc(F)c3c(c2C)CCCO3)c1[C@H](OC(C)(C)C)C(=O)O` [Example 334] yielded an IC50 of 10.4 nM.
